Assay results: PMC10174618, “Monoterpenoid aryl hydrocarbon receptor allosteric antagonists protect against ultraviolet skin damage in female mice” (Nature Communications, 2023)

Key:
[1] = target: T1, Tyrosine kinase 2 TK2 (JH2 domain pseudokinase) (Homo sapiens, UniProt P29597); assay: KINOMEscan competition binding, single concentration […]; conditions: read-out: % of control at 100 μM
T1 construct: gene TYK2; JH2 domain pseudokinase

PLK3 = PLK3 (Homo sapiens, UniProt Q9H4B4); assay: biochemical; design: KINOMEscan scanMAX active site-directed competition binding assay, percent of control, 468 kinases; conditions: competition binding, percent of control
Method: (§1) The KINOMEscan^TM screening platform (scanMAX assay) employs a proprietary active site-directed competition binding assay that quantitatively measures the interactions between test compounds (here 100 μM S-carvone) and 468 human protein kinases. The assay was performed at Eurofins DiscoverX Corp. (Fremont, CA, USA). Blocking protein kinase C (PKC) activity was reported to inhibit the transcription of CYP1A1 but to exert no effect on the nuclear translocation of AhR[26], which was also the case here with carvones. Therefore, we tested whether carvones inhibit PKC catalytic activity. […] We also evaluated the interaction between 100 μM S-carvone and 468 human protein kinases, employing KINOMEscan^TM (scanMAX assay), a proprietary active site-directed competition binding assay. The minimal inhibitory threshold used by the screening platform KINOMEscan^TM is 35% of the control kinase activity. Among 468 kinases tested, 467 were above the 35% cutoff. Tyrosine kinase 2 TK2 (JH2 domain pseudokinase) activity was inhibited to 27% of the control activity, but this kinase is not relevant to the regulation of transcription activity (Fig. 5B; Figure S9). Overall, we excluded the possibility that the effects of carvones on AhR signaling are caused indirectly by the inhibition of the human kinome, particularly PKC.

CAMK1B = target: T2, CAMK1B (Homo sapiens, UniProt Q6P2M8); assay: biochemical; design: KINOMEscan scanMAX active site-directed competition binding assay, percent of control, 468 kinases; conditions: competition binding, percent of control
T2 construct: gene PNCK
T2 sequence (Q6P2M8 whole entry): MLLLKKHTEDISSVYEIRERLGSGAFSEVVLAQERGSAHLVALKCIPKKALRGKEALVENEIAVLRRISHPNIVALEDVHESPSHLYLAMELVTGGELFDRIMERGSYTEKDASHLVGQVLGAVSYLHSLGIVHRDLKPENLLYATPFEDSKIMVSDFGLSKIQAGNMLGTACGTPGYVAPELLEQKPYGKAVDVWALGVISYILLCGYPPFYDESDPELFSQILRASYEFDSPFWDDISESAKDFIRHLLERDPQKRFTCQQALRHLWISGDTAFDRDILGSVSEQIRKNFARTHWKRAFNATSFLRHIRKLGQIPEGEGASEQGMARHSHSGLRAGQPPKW
Method: as §1

EPHB6 = EPHB6 (Homo sapiens, UniProt O15197); assay: biochemical; design: KINOMEscan scanMAX active site-directed competition binding assay, percent of control, 468 kinases; conditions: competition binding, percent of control
Method: as §1

SRMS = SRMS (Homo sapiens, UniProt Q9H3Y6); assay: biochemical; design: KINOMEscan scanMAX active site-directed competition binding assay, percent of control, 468 kinases; conditions: competition binding, percent of control
SRMS, sequence (Q9H3Y6 whole entry): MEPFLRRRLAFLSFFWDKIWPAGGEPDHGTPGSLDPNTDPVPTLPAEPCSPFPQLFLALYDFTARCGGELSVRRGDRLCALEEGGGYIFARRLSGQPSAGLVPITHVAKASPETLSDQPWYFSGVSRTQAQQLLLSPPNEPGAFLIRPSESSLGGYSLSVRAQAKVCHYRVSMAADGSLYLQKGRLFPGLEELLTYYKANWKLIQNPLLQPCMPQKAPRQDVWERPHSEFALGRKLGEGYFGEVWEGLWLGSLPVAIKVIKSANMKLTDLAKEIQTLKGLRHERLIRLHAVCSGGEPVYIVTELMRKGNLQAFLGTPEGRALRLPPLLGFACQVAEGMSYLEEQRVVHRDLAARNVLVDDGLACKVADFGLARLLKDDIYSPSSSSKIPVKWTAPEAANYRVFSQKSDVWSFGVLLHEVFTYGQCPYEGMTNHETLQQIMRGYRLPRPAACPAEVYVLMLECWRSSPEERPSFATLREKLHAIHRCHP
Method: as §1

PIK3CA(M1043I) = PIK3CA(M1043I) (Homo sapiens, UniProt P42336, M1043I); assay: biochemical; design: KINOMEscan scanMAX active site-directed competition binding assay, percent of control, 468 kinases; conditions: competition binding, percent of control
Method: as §1

ERBB2 = ERBB2 (Homo sapiens, UniProt P04626); assay: biochemical; design: KINOMEscan scanMAX active site-directed competition binding assay, percent of control, 468 kinases; conditions: competition binding, percent of control
Method: as §1

LATS2 = LATS2 (Homo sapiens, UniProt Q9NRM7); assay: biochemical; design: KINOMEscan scanMAX active site-directed competition binding assay, percent of control, 468 kinases; conditions: competition binding, percent of control
LATS2, sequence (Q9NRM7 whole entry): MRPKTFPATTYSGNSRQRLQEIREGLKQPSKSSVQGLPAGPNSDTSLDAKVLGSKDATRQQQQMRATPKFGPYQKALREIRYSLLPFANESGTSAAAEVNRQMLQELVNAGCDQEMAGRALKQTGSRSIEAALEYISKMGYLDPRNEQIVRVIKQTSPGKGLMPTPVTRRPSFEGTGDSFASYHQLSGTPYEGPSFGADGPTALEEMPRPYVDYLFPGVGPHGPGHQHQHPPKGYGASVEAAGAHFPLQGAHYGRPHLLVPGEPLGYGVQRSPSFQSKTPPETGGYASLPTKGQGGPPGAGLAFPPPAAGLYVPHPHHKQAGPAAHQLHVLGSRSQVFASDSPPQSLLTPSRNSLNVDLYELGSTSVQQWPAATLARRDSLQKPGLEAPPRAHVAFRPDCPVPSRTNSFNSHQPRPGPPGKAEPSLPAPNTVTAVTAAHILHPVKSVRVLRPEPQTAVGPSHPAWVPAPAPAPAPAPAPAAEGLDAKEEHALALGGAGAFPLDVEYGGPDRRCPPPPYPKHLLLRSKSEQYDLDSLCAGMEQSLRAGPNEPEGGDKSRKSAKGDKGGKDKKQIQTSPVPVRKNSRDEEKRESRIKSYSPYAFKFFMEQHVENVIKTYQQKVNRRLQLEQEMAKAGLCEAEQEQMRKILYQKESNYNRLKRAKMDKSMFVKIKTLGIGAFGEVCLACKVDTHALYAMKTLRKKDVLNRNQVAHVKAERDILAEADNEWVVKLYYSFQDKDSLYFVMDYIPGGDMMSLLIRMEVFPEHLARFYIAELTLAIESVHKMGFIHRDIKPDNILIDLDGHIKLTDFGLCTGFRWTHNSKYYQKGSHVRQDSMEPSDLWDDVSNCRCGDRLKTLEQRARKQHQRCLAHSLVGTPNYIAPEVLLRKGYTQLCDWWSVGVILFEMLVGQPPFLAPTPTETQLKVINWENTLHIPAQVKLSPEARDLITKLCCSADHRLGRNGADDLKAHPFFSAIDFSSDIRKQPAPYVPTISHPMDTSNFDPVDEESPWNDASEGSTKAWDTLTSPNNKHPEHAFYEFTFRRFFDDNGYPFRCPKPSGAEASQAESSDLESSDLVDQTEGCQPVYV
Method: as §1

STK36 = STK36 (Homo sapiens, UniProt Q9NRP7); assay: biochemical; design: KINOMEscan scanMAX active site-directed competition binding assay, percent of control, 468 kinases; conditions: competition binding, percent of control
STK36, sequence (Q9NRP7 whole entry): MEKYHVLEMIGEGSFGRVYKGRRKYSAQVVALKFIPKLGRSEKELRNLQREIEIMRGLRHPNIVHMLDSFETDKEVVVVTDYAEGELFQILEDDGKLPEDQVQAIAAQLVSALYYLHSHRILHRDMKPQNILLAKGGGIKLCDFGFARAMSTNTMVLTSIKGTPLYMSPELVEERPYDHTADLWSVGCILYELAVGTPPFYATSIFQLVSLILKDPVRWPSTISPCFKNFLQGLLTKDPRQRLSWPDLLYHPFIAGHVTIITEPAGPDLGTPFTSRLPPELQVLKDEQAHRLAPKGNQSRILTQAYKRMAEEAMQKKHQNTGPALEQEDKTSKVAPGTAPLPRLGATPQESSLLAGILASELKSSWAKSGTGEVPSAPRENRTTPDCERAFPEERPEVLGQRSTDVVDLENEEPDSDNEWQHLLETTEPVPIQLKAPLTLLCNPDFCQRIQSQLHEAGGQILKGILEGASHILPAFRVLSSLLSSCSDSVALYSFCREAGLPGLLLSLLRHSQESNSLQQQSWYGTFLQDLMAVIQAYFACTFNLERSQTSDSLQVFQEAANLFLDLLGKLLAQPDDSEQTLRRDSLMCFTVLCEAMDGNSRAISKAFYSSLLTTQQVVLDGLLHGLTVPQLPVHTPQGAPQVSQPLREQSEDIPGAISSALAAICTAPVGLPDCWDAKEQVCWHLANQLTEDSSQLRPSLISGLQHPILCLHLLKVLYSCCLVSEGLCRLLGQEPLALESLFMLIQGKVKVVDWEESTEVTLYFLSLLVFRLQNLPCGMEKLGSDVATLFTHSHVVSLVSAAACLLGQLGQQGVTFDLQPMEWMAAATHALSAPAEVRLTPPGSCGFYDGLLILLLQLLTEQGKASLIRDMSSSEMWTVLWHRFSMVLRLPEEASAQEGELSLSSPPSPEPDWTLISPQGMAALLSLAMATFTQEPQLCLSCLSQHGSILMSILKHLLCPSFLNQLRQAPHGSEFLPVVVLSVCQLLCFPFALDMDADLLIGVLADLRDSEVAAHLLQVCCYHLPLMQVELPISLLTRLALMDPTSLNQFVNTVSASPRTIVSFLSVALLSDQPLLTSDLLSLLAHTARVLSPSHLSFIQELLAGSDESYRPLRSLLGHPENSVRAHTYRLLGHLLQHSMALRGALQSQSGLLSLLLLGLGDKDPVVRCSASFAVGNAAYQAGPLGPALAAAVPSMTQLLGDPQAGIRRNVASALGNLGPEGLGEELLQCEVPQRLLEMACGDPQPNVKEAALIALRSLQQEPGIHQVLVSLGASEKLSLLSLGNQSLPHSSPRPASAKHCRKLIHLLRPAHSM
Method: as §1

[2] = target: T3, ABL1(F317I)-phosphorylated (Homo sapiens, UniProt P00519, F317I); assay: biochemical; design: KINOMEscan scanMAX active site-directed competition binding assay, percent of control, 468 kinases; conditions: competition binding, percent of control
T3 construct: phosphorylated
Method: as §1

MAPKAPK2 = MAPKAPK2 (Homo sapiens, UniProt P49137); assay: biochemical; design: KINOMEscan scanMAX active site-directed competition binding assay, percent of control, 468 kinases; conditions: competition binding, percent of control
Method: as §1

FGFR3 = FGFR3 (Homo sapiens, UniProt P22607); assay: biochemical; design: KINOMEscan scanMAX active site-directed competition binding assay, percent of control, 468 kinases; conditions: competition binding, percent of control
FGFR3, sequence (P22607 whole entry): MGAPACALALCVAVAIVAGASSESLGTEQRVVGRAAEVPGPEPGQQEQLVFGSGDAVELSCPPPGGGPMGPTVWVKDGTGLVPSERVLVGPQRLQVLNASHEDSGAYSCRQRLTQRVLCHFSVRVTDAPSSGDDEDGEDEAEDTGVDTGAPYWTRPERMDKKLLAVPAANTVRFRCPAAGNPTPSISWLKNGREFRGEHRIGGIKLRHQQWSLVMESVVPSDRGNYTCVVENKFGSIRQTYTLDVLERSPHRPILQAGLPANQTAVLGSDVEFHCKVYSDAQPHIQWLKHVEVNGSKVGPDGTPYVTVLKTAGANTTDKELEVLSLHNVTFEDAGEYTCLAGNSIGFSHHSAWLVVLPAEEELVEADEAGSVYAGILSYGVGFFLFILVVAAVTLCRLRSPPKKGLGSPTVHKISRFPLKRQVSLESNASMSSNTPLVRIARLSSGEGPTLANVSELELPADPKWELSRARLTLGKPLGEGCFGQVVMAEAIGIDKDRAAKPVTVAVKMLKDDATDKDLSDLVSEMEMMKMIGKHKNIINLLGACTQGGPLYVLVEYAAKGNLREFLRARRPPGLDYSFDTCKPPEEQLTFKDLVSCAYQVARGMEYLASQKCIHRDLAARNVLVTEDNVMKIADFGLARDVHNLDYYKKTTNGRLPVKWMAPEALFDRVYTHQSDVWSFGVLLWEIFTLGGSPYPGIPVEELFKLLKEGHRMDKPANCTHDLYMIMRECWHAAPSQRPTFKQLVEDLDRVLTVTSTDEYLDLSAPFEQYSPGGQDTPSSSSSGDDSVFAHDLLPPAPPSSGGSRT
Method: as §1

CTK = target: T4, CTK (Homo sapiens, UniProt P42679); assay: biochemical; design: KINOMEscan scanMAX active site-directed competition binding assay, percent of control, 468 kinases; conditions: competition binding, percent of control
T4 construct: gene MATK
Method: as §1

MEK2 = target: T5, MEK2 (Homo sapiens, UniProt P36507); assay: biochemical; design: KINOMEscan scanMAX active site-directed competition binding assay, percent of control, 468 kinases; conditions: competition binding, percent of control
T5 construct: gene MAP2K2
Method: as §1

[3] = target: T6, ABL1(T315I)-phosphorylated (Homo sapiens, UniProt P00519, T315I); assay: biochemical; design: KINOMEscan scanMAX active site-directed competition binding assay, percent of control, 468 kinases; conditions: competition binding, percent of control
T6 construct: phosphorylated
Method: as §1

CSF1R-autoinhibited = CSF1R-autoinhibited (Homo sapiens, UniProt P07333); assay: biochemical; design: KINOMEscan scanMAX active site-directed competition binding assay, percent of control, 468 kinases; conditions: competition binding, percent of control
Method: as §1

[4] = target: T7, ABL1(T315I)-nonphosphorylated (Homo sapiens, UniProt P00519, T315I); assay: biochemical; design: KINOMEscan scanMAX active site-directed competition binding assay, percent of control, 468 kinases; conditions: competition binding, percent of control
T7 construct: nonphosphorylated
Method: as §1

KIT(V559D,V654A) = KIT(V559D,V654A) (Homo sapiens, UniProt P10721, V559D/V654A); assay: biochemical; design: KINOMEscan scanMAX active site-directed competition binding assay, percent of control, 468 kinases; conditions: competition binding, percent of control
KIT(V559D,V654A), sequence (P10721 whole entry V559D/V654A): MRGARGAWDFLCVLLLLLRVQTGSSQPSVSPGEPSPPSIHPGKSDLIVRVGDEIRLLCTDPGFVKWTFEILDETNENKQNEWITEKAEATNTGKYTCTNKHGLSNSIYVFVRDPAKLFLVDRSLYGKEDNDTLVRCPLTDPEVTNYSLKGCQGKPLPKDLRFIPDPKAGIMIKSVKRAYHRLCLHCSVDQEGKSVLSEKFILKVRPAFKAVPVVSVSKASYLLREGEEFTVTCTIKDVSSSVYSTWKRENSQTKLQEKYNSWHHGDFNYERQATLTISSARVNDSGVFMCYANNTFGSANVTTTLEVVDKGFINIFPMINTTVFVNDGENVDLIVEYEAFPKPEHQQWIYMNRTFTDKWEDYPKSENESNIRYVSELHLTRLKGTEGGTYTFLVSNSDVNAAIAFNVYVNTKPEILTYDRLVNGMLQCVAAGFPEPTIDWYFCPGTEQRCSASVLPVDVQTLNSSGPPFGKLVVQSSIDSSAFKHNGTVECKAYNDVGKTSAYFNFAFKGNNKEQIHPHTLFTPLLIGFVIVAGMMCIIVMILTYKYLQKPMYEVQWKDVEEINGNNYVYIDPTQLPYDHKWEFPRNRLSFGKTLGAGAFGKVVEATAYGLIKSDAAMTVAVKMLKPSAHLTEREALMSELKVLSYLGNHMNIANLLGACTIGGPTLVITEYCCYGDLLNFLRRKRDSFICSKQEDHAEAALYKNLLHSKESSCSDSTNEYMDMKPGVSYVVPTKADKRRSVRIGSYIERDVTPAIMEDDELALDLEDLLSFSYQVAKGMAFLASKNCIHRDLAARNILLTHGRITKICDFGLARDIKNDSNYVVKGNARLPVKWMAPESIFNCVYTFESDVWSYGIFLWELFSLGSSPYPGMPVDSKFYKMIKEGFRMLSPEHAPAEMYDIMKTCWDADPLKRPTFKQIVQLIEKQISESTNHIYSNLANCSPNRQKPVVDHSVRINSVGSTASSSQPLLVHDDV
Method: as §1

SIK2 = SIK2 (Homo sapiens, UniProt Q9H0K1); assay: biochemical; design: KINOMEscan scanMAX active site-directed competition binding assay, percent of control, 468 kinases; conditions: competition binding, percent of control
Method: as §1

LOK = target: T8, LOK (Homo sapiens, UniProt O94804); assay: biochemical; design: KINOMEscan scanMAX active site-directed competition binding assay, percent of control, 468 kinases; conditions: competition binding, percent of control
T8 construct: gene STK10
Method: as §1

IKK-epsilon = target: T9, IKK-epsilon (Homo sapiens, UniProt Q14164); assay: biochemical; design: KINOMEscan scanMAX active site-directed competition binding assay, percent of control, 468 kinases; conditions: competition binding, percent of control
T9 construct: gene IKBKE
Method: as §1

Q: For C=C(C)[C@H]1CC=C(C)C(=O)C1 [S-carvone], which remaining binding at 100 µM [1] is on record?
A: 27%

Q: What about the remaining binding at 100 µM (PLK3) of the same compound?
A: 69%

Q: And the remaining binding at 100 µM (CAMK1B)?
A: 61%

Q: And the remaining binding at 100 µM (EPHB6)?
A: 51%

Q: What about the remaining binding at 100 µM (SRMS) of the same compound?
A: 76%

Q: And the remaining binding at 100 µM (PIK3CA(M1043I))?
A: 83%

Q: And the remaining binding at 100 µM (ERBB2)?
A: 83%

Q: And the remaining binding at 100 µM (LATS2)?
A: 45%

Q: What about the remaining binding at 100 µM (STK36) of the same compound?
A: 69%

Q: And the remaining binding at 100 µM [2]?
A: 97%

Q: And the remaining binding at 100 µM (MAPKAPK2)?
A: 77%

Q: And the remaining binding at 100 µM (FGFR3)?
A: 75%

Q: What about the remaining binding at 100 µM (CTK) of the same compound?
A: 75%

Q: And the remaining binding at 100 µM (MEK2)?
A: 86%

Q: What about the remaining binding at 100 µM [3] of the same compound?
A: 88%

Q: And the remaining binding at 100 µM (CSF1R-autoinhibited)?
A: 73%

Q: And the remaining binding at 100 µM [4]?
A: 78%

Q: And the remaining binding at 100 µM (KIT(V559D,V654A))?
A: 80%

Q: What about the remaining binding at 100 µM (SIK2) of the same compound?
A: 76%

Q: What about the remaining binding at 100 µM (LOK) of the same compound?
A: 87%

Q: And the remaining binding at 100 µM (IKK-epsilon)?
A: 52%
